From PMC11501026, “L-Arginine and asymmetric dimethylarginine (ADMA) transport across the mouse blood-brain and blood-CSF barriers: Evidence of saturable transport at both interfaces and CNS to blood efflux” (PLOS ONE, 2024)
Where a name gives a salt, the structure may show the parent alone. Read-outs that look alike come from different tables or passages of the source.

Assays:
[1] = capillary depletion analysis after in situ brain perfusion; type: in vivo, mouse; conditions: male, BALB/c, mouse, 5ml/min; for Kp at […]: 2.5 mins; for Kp at 30 min, 62.5 nM / Kp at 10 min, 62.5 nM: other: in situ brain perfusion, Balb/c ♂; for Kp at 10 min, 62.5 nM: CONTROL
Description: The microvasculature within a sample of brain tissue can be separated from the brain parenchyma using capillary depletion analysis. Following perfusion, the remaining brain tissue after microdissection of the regions described above (typically 200–300 mg) underwent capillary depletion following a method modified for mouse. […]

[2] = tested on: [^3H]-arginine transport across the blood-brain and blood-CSF barriers; experiment: cross-inhibition, in situ perfusion: [^3H]-arginine with 0.5–500 μM unlabelled ADMA; type: in vivo, mouse
Description: Self-inhibition experiments were also performed. […] Cross-competition experiments were also performed.
The percentage change in the RTissue uptake values achieved in the absence or presence of an unlabelled inhibitor can be calculated by means of Eq 4.
%change=RTissue−RInhibition/RTissue×100 Eq 4
We define RInhibition as the RTissue uptake in the presence of an inhibitor in the artificial plasma.
A decrease in the uptake of radiolabelled solute in the presence of unlabelled inhibitor is indicative of a saturable influx transport system. Conversely, an increase in the uptake of radiolabelled solute in the presence of unlabelled inhibitor is indicative of a saturable efflux transport system.
Concentrations of ADMA were specifically selected to mimic plasma concentrations under normal conditions (0.5 μM), pathophysiological conditions (3.0 μM), and then supraphysiological concentrations (10, 100 and 500 μM).

[3] = molecular target: eNOS; conditions: read-out: inhibition constant (Ki); cited from earlier work
[4] = pH 7.4
Description: The lipophilicity of the radiolabelled test molecules was also measured by means of an octanol:saline partition coefficient. […] Centrifugation separated the hydrophobic (octanol) phase and hydrophilic (saline) phase and 100 μL samples in triplicate were taken for radioactive liquid scintillation counting on a Tricarb 2900TR liquid scintillation counter (Perkin-Elmer; Boston, MA, USA). The partition coefficient was calculated as the ratio of radioactivity in the octanol phase to the radioactivity in the aqueous phase.

[5] = tested on: human dermal microvascular endothelial cells; conditions: cited from earlier work
[6] = capillary depletion supernatant (brain parenchyma), Difference (ADMA minus Sucrose), supernatant, mean
[7] = capillary depletion supernatant (brain parenchyma), [3H] ADMA and [14C] Sucrose uptake, supernatant, individual mouse
[8] = capillary depletion supernatant (brain parenchyma), [3H] ADMA and [14C] Sucrose uptake, supernatant, mean
[9] = endothelial cell-enriched pellet (capillary depletion), Difference (ADMA minus Sucrose), pellet, mean
[10] = endothelial cell-enriched pellet (capillary depletion), [3H] ADMA and [14C] Sucrose uptake, pellet, mean
[11] = whole-brain homogenate (capillary depletion), Difference (ADMA minus Sucrose), homogenate, mean
[12] = whole-brain homogenate (capillary depletion), [3H] ADMA and [14C] Sucrose uptake, homogenate, mean

## CN(C)C(N)=NCCC[C@H](N)C(=O)O [ADMA, N^G,N^G-dimethylarginine dihydrochloride]
[1]; capillary depletion pellet (endothelial cell-enriched), [3H] ADMA and [14C] Sucrose uptake, pellet, mean
  Kp at 20 min, 62.5 nM: 0.0276
[1]; capillary depletion supernatant (brain parenchyma), Difference (ADMA minus Sucrose), supernatant, individual mouse
  Kp at […]: 0.0611
[1]; [6]
  Kp at […]: 0.0483
  Kp at 20 min, 62.5 nM: 0.14
  Kp at 30 min, 62.5 nM: 0.0722
  Kp at 10 min, 62.5 nM: 0.0862
[1]; [7]
  Kp at […]: 0.0737
  Kp at 10 min, 62.5 nM: 0.119
[1]; [8]
  Kp at […]: 0.0581
  Kp at 20 min, 62.5 nM: 0.156
  Kp at 10 min, 62.5 nM: 0.138
[1]; capillary depletion supernatant (brain parenchyma), [3H] ADMA + [14C] Sucrose, mean, read-out: uptake, supernatant
  Kp at 30 min, 62.5 nM: 0.0993
[1]; endothelial cell-enriched pellet (capillary depletion), Difference (ADMA minus Sucrose), pellet, individual mouse
  Kp at […]: 0.0108
[1]; [9]
  Kp at […]: 0.0108
  Kp at 30 min, 62.5 nM: 0.012
  Kp at 10 min, 62.5 nM: 0.00783
[1]; endothelial cell-enriched pellet (capillary depletion), [3H] ADMA and [14C] Sucrose uptake, pellet, individual mouse
  Kp at […]: 0.0124
[1]; [10]
  Kp at […]: 0.0131
  Kp at 10 min, 62.5 nM: 0.0527
[1]; endothelial cell-enriched pellet (capillary depletion), Difference (ADMA minus Sucrose), pellet, individual mice
  Kp at 30 min, 62.5 nM: 0.0153
[1]; endothelial cell-enriched pellet (capillary depletion), [3H] ADMA + [14C] Sucrose, individual mice, read-out: uptake, pellet
  Kp at 30 min, 62.5 nM: 0.0184
[1]; endothelial cell-enriched pellet (capillary depletion), [3H] ADMA + [14C] Sucrose, mean, read-out: uptake, pellet
  Kp at 30 min, 62.5 nM: 0.0166
[1]; [11]
  Kp at […]: 0.0793
  Kp at 20 min, 62.5 nM: 0.208
  Kp at 30 min, 62.5 nM: 0.122
  Kp at 10 min, 62.5 nM: 0.127
[1]; [12]
  Kp at […]: 0.0942
  Kp at 20 min, 62.5 nM: 0.234
  Kp at 10 min, 62.5 nM: 0.224
[1]; whole-brain homogenate (capillary depletion), Difference (ADMA minus Sucrose), homogenate, individual mouse
  Kp at 10 min, 62.5 nM: 0.136
[1]; whole-brain homogenate (capillary depletion), [3H] ADMA + [14C] Sucrose, mean, read-out: uptake, homogenate
  Kp at 30 min, 62.5 nM: 0.156
[2]; 100 μM unlabelled ADMA, any of the samples analysed, 10 minutes
  effect on [^3H]-arginine distribution: did not inhibit
[2]; 500 μM unlabelled ADMA, choroid plexus, 10 minutes
  inhibition of [^3H]-arginine distribution: 72.6%
[2]; 500 μM unlabelled ADMA, each of the brain regions, 10 minutes
  inhibition of [^3H]-arginine uptake: approximately 70%
[2]; 500 μM unlabelled ADMA, supernatant (brain parenchyma), 10 minutes
  inhibition of [^3H]-arginine distribution: 72.0%
[2]; 500 μM unlabelled ADMA, whole brain homogenate, 10 minutes
  inhibition of [^3H]-arginine distribution: 65.1%
[2]; 0.5–100 μM unlabelled ADMA
  effect on transport of [^3H]-arginine ([…]) across the blood-CNS barriers: insensitive to inhibition
[2]; any concentration of unlabelled ADMA (0.5–500 μM), CSF, pineal gland and pituitary gland, 10 minutes
  effect on [^3H]-arginine distribution: not affected
[2]; up to 500 μM unlabelled ADMA, cerebral capillary endothelial cells (pellet), 10 minutes
  effect on [^3H]-arginine distribution: not affected
[3]
  Ki: 0.9 µM
[4]
  octanol-saline partition coefficient: 0.00226±0.00006
[5]; 100 μM unlabelled ADMA
  effect on [^3H]-arginine transport: significant inhibitory effect
[5]; 2.5–10 μM ADMA
  effect on [^3H]-arginine transport: did not affect
